# From publication PMC8264259, “A Novel Ruthenium(II) Complex With Lapachol Induces G2/M Phase Arrest Through Aurora-B Kinase Down-Regulation and ROS-Mediated Apoptosis in Human Prostate Adenocarcinoma Cells” (Frontiers in Oncology, 2021)
# What was measured:
# Format in all cases: cell-based, human
# [1] = tested on: DU-145 cells; assay: Cell cycle analysis (PI, flow cytometry); settings: DU-145, 0.25-1.5 μM, 24 h
# Experimental: DNA staining was performed using BD Cycletest™ Plus DNA Kit (BD Biosciences, USA) according to the manufacturer’s instructions. Briefly, DU-145 cells were seeded (5.0 × 10^4 cells/well) into 24-well culture plates and maintained to attach at 37°C in 5% CO2. After 24 h, the culture medium was replaced by complete culture medium containing 0.25, 0.5, 1.0, and 1.5 μM of complex (2). DMSO (0.1% v/v) was used as the vehicle control. Then, after 24 h treatment, the cells were harvested and fixed with 70% ethanol at 4°C for 1 h. Cells were incubated with 0.1 mg/ml RNase and 0.5 mg/ml propidium iodide (PI) for 10 min. Samples were then filtered using 50-µm nylon mesh and the FACSCanto flow cytometer (Becton Dickinson, Franklin Lakes, NJ, USA) was used to analyze the DNA histogram. Data from 10,000 cells were acquired and analyzed using the ModFit software (BD Biosciences, USA). The results were expressed as percentage of cells in each cell cycle phase (G1, S, and G2/M).
# [2] = tested on: DU-145 cells; assay: Comet assay, DU-145; settings: DU-145, 0.5 μM, 24 h
# Experimental: (§1) The comet assay was performed to evaluate DNA damage following the method described by ([37]). Briefly, DU-145 and PNT-2 cells were seeded (1.0 × 10^5 cells/well) in 24-well plates and maintained to attach at 37°C in 5% CO2 for 24 h. After, cells were treated with different concentrations of complex (2) for 24 h. DMSO (0.1% v/v) was used as the vehicle control and methyl methanesulfonate (150 μM, Sigma-Aldrich) as DNA damage inducer. Following 24 h of incubation, the cells were collected, and cell viability assay was performed using trypan blue dye. […] Then, cells were mixed with UltraPure™ Low-Melting-Point Agarose (0.5%, Invitrogen®), and added on pre-coated slides with UltraPure™ Agarose (1.5%, Invitrogen®). After agarose solidification, the slides were immersed in a lysis solution (2.5 M NaCl, 100 mM EDTA, 10 mM Tris, 10% DMSO, 1% Triton X-100, pH 10.4) for 18 h at 4°C. […] The nucleoids were identified in a fluorescence microscope (AxioStar Plus, Carl Zeiss Axio Cam MRc-AxioVision 3.1) using a 516 to 560 nm filter, 590 nm filter barrier, in 20× objective with an integrated digital camera. For each treatment, 100 random nucleoids were analyzed, and the tail fluorescence was measured through the Comet Assay IV™ imaging system (Perceptive Instruments^©, Bury St Edmunds, England).
# [3] = tested on: PNT-2 cells; assay: Comet assay, PNT-2
# Experimental: as §1
# [4] = tested on: cleaved caspase-3, -9, and PARP; assay: Western blot, apoptotic proteins; settings: DU-145, 24 h
# Experimental: (§2) Briefly, DU-145 cells were seeded (1.0 × 10^6 cells/well) into six-well plates and maintained to attach at 37°C in 5% CO2. After 24 h, cells were treated with 0.25, 0.50, 1.0, and 1.5 μM of complex (2). DMSO (0.1% v/v) was used as the vehicle control. After 24 h of incubation, cells were collected and suspended in Western blotting lysis buffer (20 mM Tris-HCl pH 7.4, 150 mM NaCl, 1 mM EDTA, and phosphatase and protease inhibitors). Cell lysates were centrifuged at 11,000g for 15 min at 4 °C, and supernatant was collected. Protein concentrations were quantified using the BCA Protein Assay Kit® (Thermo Fischer Scientific), according to the manufacturer’s instructions. For immunoblotting, equal amounts (30 μg) of total protein were electrophoresed in a NuPAGE® 4-12% Bis-Tris gel and transferred to an Invitrolon™ polyvinylidene difluoride (PVDF) membrane (Novex®, Thermo Fischer Scientific) at 100 V for 1 h. PVDF-membrane was washed two times (5 min each) with Tris-buffered saline plus Tween 20 (TBST, Sigma-Aldrich) and blocked in 5% non-fat milk in phosphate buffered saline with Tween®20 (PBST, Sigma-Aldrich) for 1 h at room temperature. […]
# [5] = tested on: Aurora-B; assay: Western blot, Aurora-B expression; settings: DU-145, increasing concentrations (0.25-1.5 μM), 24 h
# Experimental: as §2
smiles,measurement,setting,value
"CC(C)=CCC1=C([O-])C(=O)c2ccccc2C1=O.F[P-](F)(F)(F)(F)F.[Ru+2].c1ccc(P(CP(c2ccccc2)c2ccccc2)c2ccccc2)cc1.c1cnc2c(c1)ccc1cccnc12 [complex (2), [Ru(Lap)(dppm)(phen)]PF6]",cell cycle distribution,[1],increased cell number at the G2/M phase
same,DNA damage (comet tail intensity),[2],significant DNA damage increase
same,DNA damage (comet tail intensity),"[3]; PNT-2, maximum tested concentration 6.0 μM (~IC50), 24 h",increase in DNA damage
same,DNA damage (comet tail intensity),"[3]; PNT-2 prostate normal cells, same concentrations as DU-145, 24 h",no DNA damage
same,activation of downstream apoptotic proteins,[4],"increase in the activation of cleaved caspase-3, -9, and PARP"
same,Aurora-B protein levels,[5],downregulated
